{"source": "patent US8334110B2", "about": "“Detection of blood plasma amygdalin of dissipating blood stasis botanical” (Shanghai Sundise Chinese Medicine Technology Development …, priority 2007, dated 2012)", "experiment": "UPLC/MS determination of blood plasma Amygdalin after administration of the body resistance-strengthening and blood stasis-dissipating botanical composition", "assay_type": "in vivo", "conditions": "blood plasma of mammals after drenched with body resistance-strengthening and blood stasis-dissipating (Fuzheng Huayu, FZHY) botanical composition; UPLC-MS, FIG. 1 (plasma taken 0.5 hours after administration)", "excerpt": "a. After the administration of the body resistance-strengthening and blood stasis-dissipating botanical composition to mammals, first add 2-5 mol/L phosphoric acid to the composition-containing mammalian blood plasma and mix to homogenize, the volumetric ratio of the blood plasma to phosphoric acid is 1:2-3, feed the same to a Waters Oasis HLB cartridge that has been activated by methanol and water, leach with water and 80-100% methanol and elute with 0.2-1% ammonia methanol, then dry through evaporation and enrich the eluent at 25-30° C., and re-dissolve the eluent with a mobile phase;\nChromatographic conditions: chromatographic column: Acquity UPLC BEH C18, 2.1×100 mm, mobile phase A: Water-Acetonitrile-Formic acid 95:5:0.1 v/v/v, mobile phase B: Acetomtrile-Formic acid 100:0.1 v/v; MS conditions: electrospray ionization (ESI) ion source, detection in the positive ion mode, and the mass scanning range m/z 150˜800.\nThe ESI ion source in said Step (2) employs detection in the positive ion mode; the desolvation gas flow rate is 440 L/h, the desolvation gas temperature is 300° C., the cone gas flow rate is 50 L/h, the ion source temperature is 100° C., the spray capillary voltage is 3800 V, the sampling cone voltage is 30 V, the extracting cone voltage is 2.00 V, and the lens voltage is 0.1 V. The mass scanning range is m/z 150˜800.\n1. […]", "data": [{"smiles": "N#C[C@H](O[C@@H]1O[C@H](CO[C@@H]2O[C@H](CO)[C@@H](O)[C@H](O)[C@H]2O)[C@@H](O)[C@H](O)[C@H]1O)c1ccccc1", "note": "[Amygdalin]", "values": [{"measurement": "Detection of Amygdalin in blood plasma", "result": "can be detected"}]}]}
